Laboratory results from patent publication US9834514B2, “Antibiotic sensitivity-restoring and photosensitive agents” (New Mexico Tech Research Foundation, priority 2015, dated 2017).
Values after ≈ are worked out from the molar mass of the structure shown. Like-named read-outs stand apart in the source and are kept apart here.

Experiments:
VRE (ATCC 51299) = assay: Synergy with antibiotics against VRE; assay type: cell-based, Enterococcus faecalis
Method: For these experiments, overnight cultures of VRE were diluted to about 5×10^5 CFU/mL in TSB. Then, 1 mL of the diluted broth suspension was added to a borosilicate glass culture tube. After appropriate volumes of the compounds were added to the broth suspensions, the samples were mixed using a vortex mixer, and an appropriate volume of an antibiotic was added to the samples. The samples were mixed using a vortex mixer and incubated for 18 hours at 37° C. on a rotary shaking incubator. After 18 hours, the test cultures were diluted ten-fold, and 10 μL of each dilution was drip-streaked onto a TSA plate and incubated for 18 hours at 37° C. Colony counts were then performed and the CFU/mL values were calculated.
TABLE 24 details the MICs of common antibiotics against VRE. In a 12×75 mm borosilicate glass culture tube, 1 mL of cell suspension was added. Then, compound 7 was added to the cells, and the samples were mixed using a vortex mixer. […] The samples were incubated overnight at 37° C. on a rotary shaking incubator at 100 rpm. Inhibition observed visually compared to each individual treatment was considered synergistic.

Trypanosoma cruzi = assay: Light-activated killing of parasites (MTT IC50); assay type: cell-based
Method: Trypanosomes were cultured in LIT media+10% FBS. The compounds were added to create a dilution series and incubated with the trypanosomes for 1 hour. The trypanosomes were then irradiated with continuous white light for 2 minutes at a distance of 6.5 cm using a LumaCare™ light source.

[1] = tested on: S. mutans (Ward's 85W 2357); assay: Light-activated killing, colony counts; assay type: cell-based; conditions: for Dark Toxicity: no light; for Light Toxicity: white light 2 minutes
Method: (§1) Dose-dependent effects of treating bacteria with compound 1 and irradiation with white light were assessed by treating 10^8 CFU/mL of cells with compound 1, followed by irradiation with white light for 2 minutes. Compound 1 was added at a specific concentration to 1 mL of a 10^8 CFU/mL suspension of the respective bacterial cells, and the cells were incubated at 37° C. for approximately 45 minutes on a rotary shaker at 150 rpm. 0.5 mL of the cell suspension was removed and placed into the wells of a sterile ceramic drop plate, and then the cells were irradiated with white light from a Lumacare™ LC 122A light source for 2 minutes at a distance of approximately 3 cm. The time and distance of the light application delivered about 85 J/cm^2 of 400-700 nm light to the sample. After being irradiated, ten-fold dilutions were made of each cell sample. The dilutions were drip-streaked onto a tryptic soy agar (TSA) plate and incubated at 37° C. for 18-24 hours. Enumeration of bacteria was determined from the dilution, which produced a drip-streak containing approximately 30-300 colonies. After counting the colonies, the CFU/mL was calculated by applying the respective dilution factor and a factor of 100 to account for the 10 μL of sample taken. Appropriate controls were prepared, including cells with no treatment, cells with only compound 1 added, and cells only treated with light.
(§2) The error bars in FIG. 13 represent the variations between three replicate determinations.

[2] = molecular target: T1, NorA efflux pumps in MRSA (Staphylococcus aureus, UniProt P0A0J7); assay: Fluorescent binding assay of compound 1 with MRSA and S. aureus; conditions: 1 μM and 10 μM; MRSA compared to S. aureus; FIG. 1
T1 construct: endogenous in cells
Method: The error bars represent data from three independent measurements.
S. aureus and MRSA cells (about 10^8 CFU/mL) were treated with two doses of compound 1 (1 μM and 10 μM), and the cells were incubated at 37° C. for 15 minutes on a rotary shaker set at 150 rpm. After the incubation, the cells were transferred to a 96-well fluorescent plate reader and read every minute for 30 minutes at excitation wavelengths of 334 nm, 380 nm, and 407 nm, and an emission wavelength of 508 nm. The controls were: 1×PBS, compound 1 (1 μM and 10 μM) in 1×PBS, S. aureus in 1×PBS, and MRSA in 1×PBS.

VRE (ATCC No. 51299) = assay: Light-activated killing, colony counts; assay type: cell-based, Enterococcus faecalis; conditions: for Dark Toxicity: no light; for Light Toxicity: white light 2 minutes
Method: as §1
The error bars in FIG. 11 represent the variations between three replicate determinations.

[3] = tested on: S. mutans (Ward's 85W 2357); assay: MIC against S. mutans; assay type: cell-based; conditions: Streptococcus mutans; compound alone
From the text: as §2

[4] = tested on: S. mutans Ward's 85W 2357; assay: Resensitization to antibiotics (log reduction, TABLE 29); assay type: cell-based; conditions: compound 1 μM; Light (2 min)
S. pyogenes ATCC 8133 = assay: as above; assay type: cell-based; conditions: compound 1 μM; Light (2 min)
A. baumannii = assay: Treatment with compound 1 and PMB at fixed concentrations, with and without white light; assay type: cell-based
From the text: FIG. 53 is an example of the treatment of A. baumannii with compound 1 and PMB at fixed concentrations with and without irradiation using white light (λ).

E. coli = assay: MIC against E. coli; assay type: cell-based; conditions: Escherichia coli
From the text: TABLE 18 details the obtained MIC values for cells treated with compound 1, light, PMB, and Polymyxin E (PME) against E. coli.

[5] = tested on: S. aureus (ATCC No. 29213); assay: Light-activated killing, colony counts; assay type: cell-based; conditions: for Dark Toxicity: no light; for Light Toxicity: white light 2 minutes
Method: as §1
The error bars in FIG. 10 represent the variations between three replicate determinations.

[6] = Stability of the formulation at 40° C. (dynamic light scattering); assay type: physicochemical; conditions: in DMSO
Method: The stability of the formulation was determined using dynamic light scattering (DLS) to measure the mean size and standard deviation, both of which remained consistent. The experiments were repeated after the indicated periods, and the outcome of compound 1 photodynamic therapy was essentially the same in terms of cell killing.

T1 sequence (P0A0J7 whole entry): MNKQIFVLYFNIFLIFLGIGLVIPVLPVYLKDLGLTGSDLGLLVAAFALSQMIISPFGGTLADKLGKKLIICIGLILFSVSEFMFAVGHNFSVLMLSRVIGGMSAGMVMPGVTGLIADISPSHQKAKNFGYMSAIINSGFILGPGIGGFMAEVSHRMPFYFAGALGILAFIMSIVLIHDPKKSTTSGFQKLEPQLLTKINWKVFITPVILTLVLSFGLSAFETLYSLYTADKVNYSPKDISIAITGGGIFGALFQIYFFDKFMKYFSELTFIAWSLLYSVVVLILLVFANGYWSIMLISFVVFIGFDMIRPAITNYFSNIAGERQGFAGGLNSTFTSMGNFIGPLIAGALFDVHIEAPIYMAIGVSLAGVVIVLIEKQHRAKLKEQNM

In the case of `Clc1ccc(/N=N/c2c[nH]c3ccccc23)cc1` [Compound 9], the “killing of VRE in conjunction with antibiotics” value (VRE (ATCC 51299); 75 μM of compound 9 with tetracycline or norfloxacin, FIG. 44) is reported as “more effective at killing VRE”.
With `Clc1ccc(/C=C/c2[nH]c3ccccc3c2/C=C/c2ccc(Cl)cc2)cc1` [Compound 1] the IC50 (Trypanosoma cruzi; continuous white light 2 minutes, MTT 24 hours later, read-out: Compound + light IC50) was less than 0.5 µM, the IC50 (Trypanosoma cruzi; no light, read-out: IC50) was greater than 100 µM and the “Dark Toxicity” value ([1]; 0.1 μM) was 2.6 × 10^8 ± 5.57 × 10^7 CFU/mL. The “Light Toxicity” value ([1]; 0.1 μM) was 2.35 × 10^5 ± 3.50 × 10^5 CFU/mL, the “Dark Toxicity” value ([1]; 0.5 μM) was 1.44 × 10^8 ± 4.46 × 10^7 CFU/mL and the “Light Toxicity” value ([1]; 0.5 μM) was 2.33 × 10^3 ± 1.54 × 10^3 CFU/mL. For the same molecule, the “Dark Toxicity” value ([1]; 1.0 μM) was 2.1 × 10^5 ± 1.13 × 10^5 CFU/mL, the “Light Toxicity” value ([1]; 1.0 μM) was “None Detected (<100 CFU/mL)” and the “Dark Toxicity” value ([1]; 5.0 μM) was 5.5 × 10^4 ± 2.48 × 10^4 CFU/mL. For the same molecule, the “Light Toxicity” value ([1]; 5.0 μM) was “None Detected (<100 CFU/mL)”, the “binding of compound 1 by cells (fluorescence)” value [2] was “MRSA was able to bind more of compound 1” and the “Dark Toxicity” value (VRE (ATCC No. 51299); 0.1 μM) was 6.50 × 10^8 ± 5.40 × 10^8 CFU/mL. For the same molecule, the “Light Toxicity” value (VRE (ATCC No. 51299); 0.1 μM) was 7.00 × 10^2 ± 8.19 × 10^2 CFU/mL, the “Dark Toxicity” value (VRE (ATCC No. 51299); 0.5 μM) was 6.50 × 10^8 ± 1.32 × 10^8 CFU/mL and the “Light Toxicity” value (VRE (ATCC No. 51299); 0.5 μM) was 2.67 × 10^2 ± 4.62 × 10^2 CFU/mL. For the same molecule, the “Dark Toxicity” value (VRE (ATCC No. 51299); 1.0 μM) was 6.20 × 10^8 ± 2.62 × 10^8 CFU/mL, the “Light Toxicity” value (VRE (ATCC No. 51299); 1.0 μM) was “None detected (<100 CFU/mL)” and the “Dark Toxicity” value (VRE (ATCC No. 51299); 5.0 μM) was 4.55 × 10^5 ± 8.87 × 10^5 CFU/mL. The “Light Toxicity” value (VRE (ATCC No. 51299); 5.0 μM) was “None detected (<100 CFU/mL)”, the MIC [3] was 50 to 100 µM (≈ 19.5 to 39 µg/mL) and the “Log Reduction” value [4] was 5-6. For the same molecule, the “Log Reduction” value (S. pyogenes ATCC 8133) was 6-7, the “cell killing with compound 1, PMB and white light” value (A. baumannii; FIG. 53) was “PMB was more efficacious in cell killing when co-administered with compound 1 and light” and the “killing by combination of compound 1 and PMB (CFU)” value (A. baumannii; compared to either agent alone, FIG. 16) was “effective at killing A. baumannii”. For the same molecule, the MIC (E. coli) was greater than 200 mg/L, the “Dark Toxicity” value ([5]; 0.1 μM) was 1.63 × 10^8 ± 1.72 × 10^7 CFU/mL and the “Light Toxicity” value ([5]; 0.1 μM) was 1.20 × 10^5 ± 5.12 × 10^4 CFU/mL. The “Dark Toxicity” value ([5]; 0.5 μM) was 2.67 × 10^6 ± 2.10 × 10^6 CFU/mL, the “Light Toxicity” value ([5]; 0.5 μM) was 1.60 × 10^3 ± 1.44 × 10^3 CFU/mL and the “Dark Toxicity” value ([5]; 1.0 μM) was 1.34 × 10^6 ± 3.04 × 10^5 CFU/mL. The “Light Toxicity” value ([5]; 1.0 μM) was “None detected (<100 CFU/mL)”, the “Dark Toxicity” value ([5]; 5.1 μM) was 7.13 × 10^4 ± 1.80 × 10^4 CFU/mL and the “Light Toxicity” value ([5]; 5.1 μM) was “None detected (<100 CFU/mL)”. The “Stability at 40° C.” value [6] was greater than 2 months.
With `Brc1ccc(/N=N/c2c[nH]c3ccccc23)cc1` [Compound 8] the “killing of VRE in conjunction with antibiotics” value (VRE (ATCC 51299); 7.5 μM of compound 8 with vancomycin, tetracycline, or norfloxacin, FIG. 43) was “more effective at killing VRE”.
